Results published in paper PMC5464773 (eLife, 2017).
Like-named read-outs stand apart in the source and are kept apart here.

Assays:
[1] = system: BCR-ABL-expressing B-lineage acute lymphoblastic leukemia cells dependent on Mcl-1; assay: BH3 profiling, mitochondrial depolarization (JC-1) in permeabilized cells; assay type: cell-based; conditions: BH3 profiling fits Mcl-1, sigmoidal dose-response (variable slope); for Top (best-fit value): constrained (Top < 100 or Top > 78); for LogEC50 (best-fit value): x = Log [Peptide] M, fits hit constraint or ambiguous
Method: (§1) Cell line identities were confirmed by STR profiling.
(§2) Peptides were titrated by serial dilution in MEB buffer (150 mM Mannitol, 10 mM HEPES-KOH pH 7.5, 50 mM KCl, 0.02 mM EGTA, 0.02 mM EDTA, 0.1% BSA and 5 mM Succinate) containing 20 μg/mL oligomycin, 50 μg/mL digitonin, 2 μM JC-1 and 10 mM 2-mercaptoethanol in 384-well plates. Controls for no depolarization (1% DMSO) and complete depolarization with the mitochondrial oxidative phosphorylation uncoupler FCCP (20 μM) were included for data normalization. […] 15 μL of cell suspension was added to each well containing 15 μL of treatment solution. […] To produce percent depolarization, the area under the resultant curve was calculated and normalized to the assay controls. Peptide titration curves were fit to sigmoidal dose-response curves using Graphpad PRISM seven to obtain EC50 values.

[2] = system: BCR-ABL-expressing B-lineage acute lymphoblastic leukemia cells dependent on Bcl-2; assay: as above; assay type: cell-based; conditions: BH3 profiling fits Bcl-2, sigmoidal dose-response (variable slope); for Bottom (best-fit value): constrained (Bottom < 5 or 0 < Bottom < 5); for Top (best-fit value): constrained (Top > 78 or Top < 100); for LogEC50 (best-fit value): x = Log [Peptide] M, fits ambiguous or hit constraint
Method: We tested our designed peptides for Bfl-1 selective targeting by carrying out BH3 profiling of cells with known dependencies on anti-apoptotic proteins. In this assay, peptides are titrated into permeabilized cells, and mitochondrial depolarization is measured using the voltage-sensitive dye JC-1 (Figure 7A) ([Deng et al., 2007]). We tested the apoptotic sensitivity of BCR-ABL-expressing B-lineage acute lymphoblastic leukemia cell lines engineered to depend on Bcl-2, Bcl-xL, Mcl-1 or Bfl-1 overexpression for survival ([Koss et al., 2016]). […] EC50 values for inducing mitochondrial permeabilization in the engineered cell lines agreed well with trends in Bfl-1-binding affinities, as expected based on the mechanism of action (Figure 7C).
The creation and characterization of the BCR-ABL-expressing B-lineage acute lymphoblastic leukemia suspension cell lines with engineered dependencies on human versions of anti-apoptotic genes is detailed in [Koss et al. (2016)]). Cells were grown in RPMI (Life Technologies, Carlsbad, CA) with 10% fetal bovine serum, 2 mM L-glutamine, 10 mL/L 100x Pen/Strep (Life Technologies # 15140122), 25 mM HEPES and 10 mL/L 100x NEAA (Life Technologies, 11140050). The adherent cell lines PC-3 (RRID: CVCL_0035) and SF295 (RRID: CVCL_1690) are from the NCI60 panel ([Lorenzi et al., 2009]) and were grown in RPMI (Life Technologies) with 10% fetal bovine serum, 2 mM L-glutamine and 10 mL/L 100x Pen/Strep (Life Technologies # 15140122 ). Cell line identities were confirmed by STR profiling. The Lookout Mycoplasma PCR detection kit (Sigma) was used to detect mycoplasma infection. Mycoplasma was only detected in the PC-3 cell line, and internal controls were used to account for this phenotype.
Peptides were titrated by serial dilution in MEB buffer (150 mM Mannitol, 10 mM HEPES-KOH pH 7.5, 50 mM KCl, 0.02 mM EGTA, 0.02 mM EDTA, 0.1% BSA and 5 mM Succinate) containing 20 μg/mL oligomycin, 50 μg/mL digitonin, 2 μM JC-1 and 10 mM 2-mercaptoethanol in 384-well plates. Controls for no depolarization (1% DMSO) and complete depolarization with the mitochondrial oxidative phosphorylation uncoupler FCCP (20 μM) were included for data normalization. Cells were suspended at 1.67 × 10^6 cells/mL in MEB. 15 μL of cell suspension was added to each well containing 15 μL of treatment solution. Fluorescence emission was measured every 5 min for 3 hr at […] with 525 nm excitation on a Tecan Safire2. To produce percent depolarization, the area under the resultant curve was calculated and normalized to the assay controls. Peptide titration curves were fit to sigmoidal dose-response curves using Graphpad PRISM seven to obtain EC50 values.

Mcl-1 = target: T1, Mcl-1 (Homo sapiens, UniProt Q07820); assay: Competition fluorescence polarization (anisotropy) with fluoresceinated BIM; assay type: binding
T1 construct: c-myc
T1 sequence (Q07820 whole entry): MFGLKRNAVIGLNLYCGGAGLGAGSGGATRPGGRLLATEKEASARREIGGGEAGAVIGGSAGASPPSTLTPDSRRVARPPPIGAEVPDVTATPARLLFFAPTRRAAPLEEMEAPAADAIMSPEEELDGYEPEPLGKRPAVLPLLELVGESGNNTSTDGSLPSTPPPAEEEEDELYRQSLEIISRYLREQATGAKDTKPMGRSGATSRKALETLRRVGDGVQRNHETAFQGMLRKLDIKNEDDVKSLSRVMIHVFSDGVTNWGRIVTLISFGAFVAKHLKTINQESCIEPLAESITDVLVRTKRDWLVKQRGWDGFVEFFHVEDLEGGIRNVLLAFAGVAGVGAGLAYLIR
Method: C-myc-tagged receptors were used for all Bcl-2 homologs, as previously described ([DeBartolo et al., 2012]; [Dutta et al., 2010]). Plates were mixed at 23°C for 3 hr. Plates were read again at 24 to check equilibration. Experiments were done in at least triplicate. Data were fit, as described for competition fluorescence anisotropy experiments in [Foight et al. (2014]), to a complete competitive binding model (equation 17 in [Roehrl et al. [2004]]) using a Python script.

[3] = system: BCR-ABL-expressing B-lineage acute lymphoblastic leukemia cells dependent on Bfl-1; assay: BH3 profiling, mitochondrial depolarization (JC-1) in permeabilized cells; assay type: cell-based; design: key to Bottom (best-fit value) / Top (best-fit value): % depolarization, normalized to DMSO (0) and FCCP (100) controls; conditions: for mitochondrial depolarization pattern in BH3 profiling: 100 nM peptide, four cell lines engineered to depend on Bcl-2, Bcl-xL, Mcl-1 or Bfl-1, JC-1; for HillSlope (best-fit value) / Bottom (best-fit value) / Top (best-fit value) / LogEC50 (best-fit value): BH3 profiling fits Bfl-1, sigmoidal dose-response (variable slope); for Bottom (best-fit value): constraint Bottom < 5; for Top (best-fit value): constraint Top > 78; for LogEC50 (best-fit value): x = Log [Peptide] M, 55-56 Y values analyzed
Method: as §1, §2

SF295 cells = assay type: cell-based; conditions: for peptide concentration leading to cytochrome c release in unprimed cells: SF295, unprimed, iBH3, 25°C, 1 hr; for Bottom (best-fit value) / HillSlope (best-fit value) / Top (best-fit value) / LogEC50 (best-fit value): SF295 cells, iBH3 fit, sigmoidal dose-response (variable slope); for LogEC50 (best-fit value): log of peptide concentration in M
Method: (§3) To test the possibility that FS1, FS2 or FS3 may directly activate BAK and BAX, we measured cytochrome c release in two ‘unprimed’ cell lines (PC-3 and SF295). Unprimed cells require BAK/BAX activators to release cytochrome c ([Certo et al., 2006]).
as §1
(§4) Plates were incubated at 25°C for 1 hr.

PC-3 cells = assay: iBH3, cytochrome c release in unprimed cells (BAK/BAX activator function); assay type: cell-based; conditions: for peptide concentration leading to cytochrome c release in unprimed cells: PC-3, unprimed, iBH3, 25°C, 1 hr; for LogEC50 (best-fit value) / HillSlope (best-fit value) / Bottom (best-fit value) / Top (best-fit value): iBH3 fit PC-3, sigmoidal dose-response (variable slope); for LogEC50 (best-fit value): log of EC50, x axis Log [Peptide M]; for Bottom (best-fit value) / Top (best-fit value): fit of 4 replicates
Method: as §3, §1, §4

[4] = competition FP source data, mean of three replicates, values above 5 μM are reported as > 5 μM in the figures, read-out: mean Ki (M) Mcl-1
[5] = competition FP source data, replicate 1
[6] = competition FP source data, replicate 2
[7] = competition FP source data, replicate 3

| Substance | HillSlope (best-fit value) [1] | Top (best-fit value) [1] | LogEC50 (best-fit value) [1] | HillSlope (best-fit value) [2] | Bottom (best-fit value) [2] | Top (best-fit value) [2] | LogEC50 (best-fit value) [2] | Ki (Mcl-1; [4]) | Ki (M) Mcl-1 (Mcl-1; [5]) | Ki (M) Mcl-1 (Mcl-1; [6]) | Ki (M) Mcl-1 (Mcl-1; [7]) | mitochondrial depolarization pattern in BH3 profiling [3] | HillSlope (best-fit value) [3] | Bottom (best-fit value) [3] | Top (best-fit value) [3] | LogEC50 (best-fit value) [3] | peptide concentration leading to cytochrome c release in unprimed cells (SF295 cells) | Bottom (best-fit value) (SF295 cells) | HillSlope (best-fit value) (SF295 cells) | peptide concentration leading to cytochrome c release in unprimed cells (PC-3 cells) | also measured |
| --- | --- | --- | --- | --- | --- | --- | --- | --- | --- | --- | --- | --- | --- | --- | --- | --- | --- | --- | --- | --- | --- |
| Ac-QWIREIAAGLRRFADILNAQVER-NH2 [FS3] | 0.8379 | ~ 100 | -5.183 | 1.964 | ~ 5 | ~ 100 | -5.077 | 5.52e-07 M | 6.51e-07 M | 6.19e-07 M | 3.85e-07 M | promoted depolarization only in Bfl-1 dependent cells | 0.653 | 0.004086 | 83.65 | -8.381 | 30 to 100 µM | 0.0773 | 2.539 | 30 to 100 µM | Bottom (best-fit value) ([1]; constrained (0 < Bottom < 5 or Bottom < 5)): 4.876; specificity in BH3 profiling ([3]; four engineered cell lines, FS3 statement holds for JC-1 BH3 profiling and iBH3): significant cross reactivity at 30 μM; Top (best-fit value) (SF295 cells): 1.042; LogEC50 (best-fit value) (SF295 cells): -4.873; LogEC50 (best-fit value) (PC-3 cells): -4.638; HillSlope (best-fit value) (PC-3 cells): 2.225; Bottom (best-fit value) (PC-3 cells): 0.07242; Top (best-fit value) (PC-3 cells): 1.062 |
| Ac-QWVREIAAGLRLAADNVNAQLER-NH2 [FS1] | 0.346 | 99.39 | -4.985 | 0.3224 | ~ 5 | ~ 78 | ~ -2.821 | 7.64e-06 M | 2.37e-06 M | 8.12e-06 M | 1.24e-05 M | promoted depolarization only in Bfl-1 dependent cells | 0.8486 | 1.325 | 81.21 | -7.974 | > 100 µM | ~ -0.1825 | ~ -14.56 | > 100 µM | Ki (Mcl-1; competition FP, 50 nM c-myc-tagged receptor + 25 nM fluoresceinated BIM, Tris pH 7.8, 23°C, 3 hr, mean ± SD of three replicates, read-out: Ki (nM) Mcl-1): > 5e-06 M; Top (best-fit value) (SF295 cells): 0.01448; LogEC50 (best-fit value) (SF295 cells): ~ -4.046; LogEC50 (best-fit value) (PC-3 cells): ~ -3.754; HillSlope (best-fit value) (PC-3 cells): ~ -10.78; Bottom (best-fit value) (PC-3 cells): ~ -63.64; Top (best-fit value) (PC-3 cells): 0.1 |
| Ac-QWVREIAAGLRRAADDVNAQVER-NH2 [FS2] | 0.4032 | ~ 100 | -4.604 | 1.067 | ~ 5 | ~ 100 | -4.482 | – | 2.88e-06 M | 3.39e-06 M | 3.32e-06 M | promoted depolarization only in Bfl-1 dependent cells | 0.7703 | 0.97 | 84.17 | -7.679 | > 100 µM | – | – | > 100 µM | fold weaker binding to Mcl-1 than to Bfl-1 (Mcl-1; ratio of Ki values from competition FP): > 100 fold |
